This note sets out measurements from patent publication US12116362B2, “Monocyclic compounds useful as GPR120 modulators” (Valo Health, Inc., priority 2016, dated 2024).

The target in assay [1] is T1, human GPR120 (Homo sapiens, UniProt Q5NUL3).
T1 construct: host or cells: CHO-K1
The assay is described as follows: GPR120 β-Arrestin Recruitment Assay (PathHunter, CHO-K1 cells). In kind it is cell-based. The settings on record: for EC50: read-out: β-Arr pEC50 (converted); for activation at 10 µM: CHO-K1, read-out: percent activation at a single concentration (printed in the β-Arr pEC50 column). An excerpt: This in vitro assay tests compounds' ability to activate intracellular signaling via 3-Arrestin recruitment to heterologously expressed human GPR120. This functional cellular assay utilizes enzyme fragment complementation with β-galactosidlase (β-gal) as a functional reporter (DiscoveRx PathlHunter® β-Arrestin assay platform). The human (GPR120 receptor (GenBank accession Number NM_181745) was fused in frame with the small enzyme fragment ProLink™ and co-expressed in CHO-K1 cells with a fusion protein of β-Arrestin 2 and the larger, N-terminal deletion mutant of β-gal. Activation by a GPR120 agonist stimulates binding of β-arrestin to the ProLink-tagged GPCR and forces complementation of the two enzyme fragments, resulting in the formation of an active β-gal enzyme. This interaction leads to an increase in enzyme activity that can be measured using chemiluminescent PathHunter® Detection Reagents.
One day prior to the assay, cells were seeded in a total volume of 20 μl of growth medium into white walled 384-well microplates and incubated at 37° C./5% CO2 overnight. On the day of the assay, growth medium was removed and 20 μl assay buffer (HBSS+10 mM HEPES+0.1% heat-inactivated BSA) were added to each well.
Test compounds were dissolved in 100% DMSO to a concentration of 10 mM to provide stock solutions. Serial dilutions were performed from stock solutions into assay buffer to obtain intermediate concentrations of 5-fold higher than the concentrations to be tested. 5 μl of the 5× compound solutions were added to the cells and the assay plates were incubated at 37° C. for 90 minutes. The final concentration of compounds tested in the assay ranged from 1.5 nM to 100 μM. Following incubation, 12.5 μl of PathHunter® detection reagent were added to each well, and plates were incubated at room temperature for 60 minutes. Chemiluminescence was read using an EnVision plate reader (PerkinElmer), raw data were expressed as relative light units (RLU).
(§1) To determine agonist potencies (EC50 values), non-linear least-squares curve fits of the raw data (RLU) were performed in the GraphPad Prism software package, using the 4-parameter model with variable Hill Slope:
Reported below in Table 1 are pEC50 values (pEC50=−log(EC50) from curve fit) for compounds of Formula I in this assay, β-Arr pEC50 Alternatively, percent activation at a single concentration is reported.
(Recruitment of arrestin is a read-out of receptor activation apart from second messengers.)
T1 sequence (Q5NUL3 1-377 isoform Q5NUL3-1): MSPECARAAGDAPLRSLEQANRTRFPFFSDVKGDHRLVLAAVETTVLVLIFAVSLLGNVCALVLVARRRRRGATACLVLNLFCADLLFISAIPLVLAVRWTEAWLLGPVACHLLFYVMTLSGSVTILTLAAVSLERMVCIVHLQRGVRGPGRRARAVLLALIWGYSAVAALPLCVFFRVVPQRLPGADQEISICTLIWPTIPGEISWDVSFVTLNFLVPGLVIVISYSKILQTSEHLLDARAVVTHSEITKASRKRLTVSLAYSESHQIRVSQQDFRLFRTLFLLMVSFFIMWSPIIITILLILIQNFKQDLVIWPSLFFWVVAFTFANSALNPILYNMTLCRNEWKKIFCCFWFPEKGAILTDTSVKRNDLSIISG
T1 sequence (P32121 whole entry partner): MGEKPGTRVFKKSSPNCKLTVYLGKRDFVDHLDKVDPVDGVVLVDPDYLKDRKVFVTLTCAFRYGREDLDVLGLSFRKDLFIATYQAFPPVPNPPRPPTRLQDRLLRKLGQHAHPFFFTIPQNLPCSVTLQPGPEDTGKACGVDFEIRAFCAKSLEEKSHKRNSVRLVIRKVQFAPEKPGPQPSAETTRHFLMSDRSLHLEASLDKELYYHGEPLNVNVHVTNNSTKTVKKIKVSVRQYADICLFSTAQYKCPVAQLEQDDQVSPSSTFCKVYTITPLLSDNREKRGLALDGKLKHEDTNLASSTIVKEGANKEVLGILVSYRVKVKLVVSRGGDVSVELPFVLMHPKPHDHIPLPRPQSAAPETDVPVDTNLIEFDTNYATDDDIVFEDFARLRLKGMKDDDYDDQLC

In assay [2] the target is T2, human GPR120 (Homo sapiens, UniProt Q5NUL3).
T2 construct: expressed in transfected cells; host or cells: CHO-K1 coexpressing Gα16 and mitochondrial apoaequorin
T2 sequence (Q5NUL3 1-361): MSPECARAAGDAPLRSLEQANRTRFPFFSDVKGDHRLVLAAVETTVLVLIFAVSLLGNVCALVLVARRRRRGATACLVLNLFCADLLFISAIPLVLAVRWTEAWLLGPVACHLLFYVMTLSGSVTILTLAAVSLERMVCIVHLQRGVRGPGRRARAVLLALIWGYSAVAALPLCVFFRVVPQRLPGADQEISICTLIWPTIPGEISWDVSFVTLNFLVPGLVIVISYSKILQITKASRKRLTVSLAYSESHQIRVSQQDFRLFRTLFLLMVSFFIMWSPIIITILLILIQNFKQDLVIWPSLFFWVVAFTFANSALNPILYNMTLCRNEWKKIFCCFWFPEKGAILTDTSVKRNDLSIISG
As to the kind of experiment: Human GPR120 Calcium-Release Assay (aequorin luminescence, CHO-K1 cells). The class given is cell-based. The settings on record: pEC50=−log(EC50) from curve fit; short variant of human GPR120 in CHO-K1 with Gα16 and apoaequorin; read-out: Ca2+ pEC50 (converted).
Description: This in vitro assay tests compounds' ability to activate heterologously expressed human GPR120 via G-protein coupling leading to generation of inositol 1,4,5-triphosphate and mobilization of intracellular calcium. This functional cellular assay is based on the luminescence of mitochondrial aequorin following intracellular Ca^2+ release. Aequorin is a photoprotein isolated from the jellyfish Aequorea victoria. The active protein is formed in the presence of molecular oxygen from apoaequorin and its cofactor coelenterazine. Binding of Ca^2+ to the active protein induces a conformational change, resulting in oxidation of coelenterazine and subsequent blue luminescence.
The short variant of the human GPR120 receptor (GenBank accession Number AAI01176) was stably expressed in a CHO-K1 cell line coexpressing Gα16 and mitochondrial apoaequorin.
Cells were grown to mid-log phase in culture media without antibiotics, were detached with PBS/EDTA, centrifuged and resuspended in assay buffer (DMEM-F12 medium with 15 mM HEPES pH 7.0 and 0.1% protease free BSA) at a concentration of 10^6 cells/mL. Cells were incubated at room temperature for at least 4 hours with 5 μM coelenterazine h.
Test compounds were dissolved in 100% DMSO to a concentration of 20 mM to provide stock solutions. Serial dilutions were performed from stock solutions in 100% DMSO to obtain intermediate concentrations 200-fold higher than the concentrations to be tested. Each sample was diluted 100-fold into assay buffer. 50 μl of these compound solutions were dispensed into each well of 96-well assay plates. The final concentration of compounds tested in the assay ranged from 5 nM to 100 μM. α-Linolenic acid was used as a reference compound. Each test was performed in duplicate.
To start the assay, 50 μl of cell suspension were added to each well of the assay plate. The resulting luminescence was recorded using a Hamamatsu Functional Drug Screening System 6000 (FDSS 6000), and raw data were expressed as relative light units (RLU).
as §1
Reported below in Table 1 are pEC50 values (pEC50=−log(EC50) from curve fit) for representative compounds of Formula I in this assay, Ca2+pEC50.

Setting [3] is: pEC50=−log(EC50) from curve fit, CHO-K1 cells, 90 min incubation.

Structures are written as SMILES. Some results are limits rather than exact numbers.

As for `O=S1(=O)c2ccccc2CN1c1cncc(Oc2cccnc2)n1` [Compound 142], the EC50 is 39.8 µM at human GPR120 [1] (setting [3]) and 1.26 µM at human GPR120 [2].
For the compound `O=S1(=O)c2ccccc2CN1c1ccnc(Oc2cccc(F)c2)n1` [Compound 37], the EC50 on human GPR120 [1] (setting [3]) is 1 µM; at human GPR120 [2], 0.2 µM.
For the compound `Cc1cc(N2Cc3ccccc3S2(=O)=O)nc(Oc2ccc(F)cc2)n1` [Compound 106], the EC50 is 1 µM at human GPR120 [1] (setting [3]) and 0.2 µM on human GPR120 [2].
In the same order, the values of `O=S1(=O)c2ccccc2CN1c1ccnc(Oc2ccc(OCc3ccccc3)cc2)n1` [Compound 45] are 1.58 µM and greater than 100 µM.
For `Cc1cc(OC2CCC2)nc(N2Cc3ccccc3S2(=O)=O)c1` [Compound 128], the EC50 at human GPR120 [1] (setting [3]) was 0.0398 µM; on human GPR120 [2], 0.0794 µM.
Consider `O=S1(=O)c2ccccc2CN1c1ccnc(OC2CCCC2)n1` [Compound 60], for which the EC50 was 1.58 µM at human GPR120 [1] (setting [3]) and 0.501 µM on human GPR120 [2].
For `COc1cc(Oc2ccc(F)cc2)nc(N2Cc3ccccc3S2(=O)=O)n1` [Compound 101], the EC50 on human GPR120 [1] (setting [3]) is 0.398 µM; on human GPR120 [2], greater than 0.1 µM.
With `O=S1(=O)c2ccccc2CN1c1ccnc(OC2CCCCC2)n1` [Compound 59], the EC50 was 6.31 µM on human GPR120 [1] (setting [3]) and 12.6 µM on human GPR120 [2].
On to `O=S1(=O)c2ccccc2CN1c1cc(C(F)(F)F)nc(Oc2cccnc2)n1` [Compound 78], for which the EC50 at human GPR120 [1] (setting [3]) was 1.58 µM; at human GPR120 [2], 3.98 µM.
In the same order, the values of `COc1cncc(Oc2nccc(N3Cc4ccccc4S3(=O)=O)n2)c1` [Compound 50] are 5.01 µM and 6.31 µM.
For the compound `O=S1(=O)c2ccccc2CN1c1ccnc(Oc2ccc(OC(F)(F)F)cc2Cl)n1` [Compound 36], the values for the EC50 at human GPR120 [1] (setting [3]) and on human GPR120 [2] were 0.631 µM and 7.94 µM, respectively.
On to `O=S1(=O)c2ccccc2CN1c1cccc(Oc2cccnc2)n1` [Compound 121], for which the EC50 is 1.58 µM on human GPR120 [1] (setting [3]) and 0.2 µM at human GPR120 [2].
For `CN1CC(Oc2nccc(N3Cc4ccccc4S3(=O)=O)n2)C1` [Compound 61], the EC50 was greater than 31.6 µM on human GPR120 [1] (setting [3]) and greater than 100 µM at human GPR120 [2].
In the same order, the values of `CCc1cc(N2Cc3ccccc3S2(=O)=O)nc(Oc2cccnc2)n1` [Compound 82] are 2.51 µM and 1.26 µM.
In the same order, the values of `O=S1(=O)c2ccccc2CN1c1ccnc(OC2CCC2)n1` [Compound 58] are 2.51 µM and 0.631 µM.
As to `O=S1(=O)c2ccccc2CN1c1cc(C2CC2)nc(Oc2cccnc2)n1` [Compound 83], the EC50 on human GPR120 [1] (setting [3]) was 2.51 µM; on human GPR120 [2], 0.794 µM.
In the same order, the values of `Cc1cc(N2Cc3ccccc3S2(=O)=O)nc(Oc2ccc(Cl)cc2)n1` [Compound 86] are 0.251 µM and 0.398 µM.
As for `O=S1(=O)c2ccccc2CN1c1cc(C(F)(F)F)nc(Oc2ccccc2)n1` [Compound 98], the EC50 on human GPR120 [1] (setting [3]) was 0.794 µM; at human GPR120 [2] it was 2.51 µM.
For the compound `O=S1(=O)c2ccccc2CN1c1ccnc(Oc2cncc(Cl)c2)n1` [Compound 51], at human GPR120 [2], the EC50 was 1 µM.
On to `O=S1(=O)c2ccccc2CN1c1ccnc(Oc2ccc(Cl)c(Cl)c2)n1` [Compound 33], for which the EC50 on human GPR120 [2] is greater than 100 µM.
With `O=S1(=O)c2ccccc2CN1c1ccnc(-n2ccc3ccncc32)n1` [Compound 30], at human GPR120 [1], the activation at 10 µM stood at 17%.
Take `COc1ccc2c(c1)S(=O)(=O)N(c1cccc(Oc3cccnc3)n1)C2` [Compound 132]: the EC50 on human GPR120 [1] (setting [3]) was greater than 31.6 µM.
The same measure, in the same setting: the result for `CC(=O)N1CC(Oc2nccc(N3Cc4ccccc4S3(=O)=O)n2)C1` [Compound 110] reads greater than 31.6 µM; that for `O=S1(=O)c2ccccc2CN1c1ccnc(Oc2cncc(Br)c2)n1` [Compound 52], 12.6 µM.
Take `Cc1cc(Oc2ccccc2)nc(N2Cc3ccccc3S2(=O)=O)n1` [Compound 105]: the EC50 on human GPR120 [1] (setting [3]) was 2.51 µM.
The same measure, in the same setting: then `CN1CCN(c2cc(N3Cc4ccccc4S3(=O)=O)nc(Oc3cccnc3)n2)CC1` [Compound 108], with greater than 31.6 µM; and `O=S1(=O)c2ccccc2CN1c1cc(C(F)(F)F)cc(OC2CC(F)(F)C2)n1` [Compound 141], with 6.31 µM; and `O=S1(=O)c2ccccc2CN1c1ccnc(-n2ccc3ccccc32)n1` [Compound 29], with 15.8 µM.
The same measure, in the same setting: the result for `O=S1(=O)c2cc(Cl)ccc2CN1c1ccnc(Oc2cccnc2)n1` [Compound 4] reads greater than 31.6 µM.
Consider `CC(=O)Nc1cccc(Oc2nccc(N3Cc4ccccc4S3(=O)=O)n2)c1` [Compound 24], for which the activation at 10 µM on human GPR120 [1] amounted to 1%.
For the compound `O=C1c2ncccc2CN1c1cccc(Oc2cccnc2)n1` [Compound 127], the EC50 at human GPR120 [1] (setting [3]) is greater than 31.6 µM.
`CN(C)C(=O)c1cc(Oc2ccc(Cl)cc2)nc(N2Cc3ccccc3S2(=O)=O)c1` [Compound 139]: the EC50 at human GPR120 [1] (setting [3]) is greater than 10 µM.
In the case of `O=S1(=O)c2ccccc2CN1c1ccnc(Oc2cc(Cl)cc(Cl)c2)n1` [Compound 38], at human GPR120 [1] (setting [3]), the EC50 was 15.8 µM.
On to `Cc1cc(Oc2cccnc2)nc(N2Cc3ccccc3S2(=O)=O)c1` [Compound 136], for which the EC50 on human GPR120 [1] (setting [3]) was 0.631 µM.
`O=C(COc1nccc(N2Cc3ccccc3S2(=O)=O)n1)Nc1ccccc1` [Compound 76]: the EC50 at human GPR120 [1] (setting [3]) is greater than 31.6 µM.
`CC(=O)N1CCC(Oc2nccc(N3Cc4ccccc4S3(=O)=O)n2)CC1` [Compound 111]: the EC50 at human GPR120 [1] (setting [3]) was greater than 10 µM.
As to `O=S1(=O)c2ccccc2CN1c1ccnc(Oc2cccnc2)n1` [Compound 1], on human GPR120 [2], the EC50 was 7.94 µM.
As to `COc1cc(N2Cc3ccccc3S2(=O)=O)nc(OC2CC(F)(F)C2)n1` [Compound 93], the EC50 on human GPR120 [2] was 0.631 µM.
On to `CC(C)c1cc(N2Cc3ccccc3S2(=O)=O)nc(Oc2cccnc2)n1` [Compound 84], for which the EC50 at human GPR120 [1] (setting [3]) was greater than 10 µM.
As for `O=C1Cc2ccccc2N1c1nccc(Oc2cccnc2)n1` [Compound 120], on human GPR120 [1] (setting [3]), the EC50 is greater than 31.6 µM.
Regarding `O=S1(=O)c2ccccc2CN1c1ccnc(Oc2ccnc3ccccc23)n1` [Compound 27], the activation at 10 µM on human GPR120 [1] worked out at 9%.
As to `Cc1ncccc1Oc1nccc(N2Cc3ccccc3S2(=O)=O)n1` [Compound 17], the activation at 10 µM on human GPR120 [1] is 4%.
Consider `COc1ccc2c(c1)CN(c1nccc(Oc3cccnc3)n1)S2(=O)=O` [Compound 116], for which, at human GPR120 [1] (setting [3]), the EC50 is 39.8 µM.
For `Cc1nc(Oc2ccc(Cl)cc2)nc(N2Cc3ccccc3S2(=O)=O)n1` [Compound 143], the “β-Arr pEC50” value on human GPR120 [1] (setting [3]) is less than 4.5.
For the compound `Cc1ccc(Oc2nccc(N3Cc4ccccc4S3(=O)=O)n2)cn1` [Compound 18], the EC50 at human GPR120 [1] (setting [3]) was greater than 10 µM.
